The nature of data set [1]: Metabolic stability in fresh human plasma (LC/MS/MS peak heights). The class given is in vitro ADME. The following applies: for % Remaining: plasma; for Peak Height: duplicate aliquots. As for the experimental part: Compounds A1-A3 were independently spiked directly into an individual lot of fresh human plasma, with sodium heparin as the anticoagulant, such that the final assay concentration of each compound was 1.00 μM. After incubation at room temperature for 0, 0.5, 1, 2, and 4 hours, samples were removed and aliquoted for analysis. Valacyclovir was used as a positive control. The plasma samples containing a test compound were processed by protein precipitation.
A primary 1.00 mM stock solution of a test compound was prepared in either acetonitrile or acetonitrile:water (1:1, v/v). A 0.200 mM working stock was made from the primary stock in acetonitrile water (1:1, v/v), which was used in the human plasma stabiltity study. The primary and working stock solutions were stored at −20° C. when not in use. When it was used in the assay, the working stock was kept at room temperature for as short a time as possible.
The human plasma stabiltity study was initiated by adding 5.00 μL of a test compound stock solution to 0.995 mL of human plasma (sodium heparin) in a 1.7-mL snap tube. Time zero points were generated by immediately removing duplicate 50.0 μL aliquots of plasma after initiating each incubation and quenching in 150 μL of methanol. The plasma incubation tubes were capped and remained at room temperature between time points.
After 0.5, 1, 2, and 4 hours of incubation, duplicate 50.0 μL aliquots of plasma were removed and placed into the extraction tubes containing 150 μL of methanol. Each time point was immediately extracted by vortex mixing, centrifuged, and the supernate removed to HPLC vial for analysis. After extraction of all samples, the extracts were analyzed by LC/MS/MS.
LC/MS/MS analysis of the incubation solutions was conducted by initial separation of a test compound peak using chromatography prior to detection by a mass spectrometer. The LC/MS system was comprised of a HPLC coupled with a TQS-Micro or Quattro Premier. The mobile phase was nebulized using heated nitrogen in a Z-spray source/interface set to electrospray in either positive ionization mode or negative ionization mode. The ionized compounds were detected using MS/MS. The data was acquired using MassLynx.
The peak heights for compounds A1-A3 are presented in Table 1, whereas the peak heights for the positive control are shown in Table 2.

Data set [2] can be described thus: Compound A2 concentration in the CSF of rats. The class given is in vivo. The protocol: Compound A2 in the CSF of the rats was also analyzed. The results are shown in Table 4 below, wherein BQL stands for below the quantifiable limit of 2.0 ng/mL.
The nature of data set [3]: Pharmacokinetic study of compound A2 in rats. The class given is in vivo. As for the experimental part:
A pharmacokinetic study on compound A2 was carried out in rats.

[4] abbreviates: fresh human plasma, 1.00 μM, room temperature, 0 h.
The mark [5] stands for this setting: fresh human plasma, 1.00 μM, room temperature, 0.5 h.
The mark [6] stands for this setting: fresh human plasma, 1.00 μM, room temperature, 4 h.

One may read the AUC(0-inf) as total exposure, with the tail of the curve extrapolated. A lower AUC(0-inf) goes with less exposure. For orientation: AUC(0-t) means exposure summed from dosing to a finite time, without extrapolation to infinity. High values mean more exposure, low ones less exposure. As a reminder, the Cmax is the highest concentration seen after dosing. Usually Tmax stands for the time from dosing to the highest level. In general, bioavailability refers to dose-corrected exposure relative to a reference, in per cent. Read a low bioavailability as poor availability.

Each structure is given as a SMILES string. Several values for one entry are separate records, joined by “and”; a condition that tells them apart may be missing. Equal values may be shown once. Read-outs that look alike come from different tables or passages of the source.

In the case of `CS(=O)(=O)Nc1cccc(NS(=O)(=O)c2ccc(C(=O)O)cc2)c1` [Compound A1, 4-(N-(3-(methylsulfonamido)phenyl)sulfamoyl)benzoic acid], the “Mean Height” value was 4,250 in data set [1] (human, 0 h, 1 μM); 3,740 in data set [1] (human, 0.5 h, 1 μM); 3,680 in data set [1] (human, 1 h, 1 μM); 3,510 in data set [1] (human, 2 h, 1 μM); 3,670 in data set [1] (human, 4 h, 1 μM). Also, the “% Remaining” value turned out to be 100% in data set [1] (human, 0 h, 1 μM); 88% in data set [1] (human, 0.5 h, 1 μM); 87% in data set [1] (human, 1 h, 1 μM); 83% in data set [1] (human, 2 h, 1 μM); 86% in data set [1] (human, 4 h, 1 μM).

For `Cc1ccc(C(F)(F)F)cc1NS(=O)(=O)c1cccc(C(=O)O)c1` [Compound A2, 3-(N-(2-methyl-5-(trifluoromethyl)phenyl)sulfamoyl)benzoic acid], the “CSF Concentration” value is “BQL (BQL stands for below the quantifiable limit of 2.0 ng/mL)” in data set [2] (IV, 0.00 h, individual animals); 65 ng/mL and 0.95 ng/mL and BQL (BQL stands for below the quantifiable limit of 2.0 ng/mL) in data set [2] (IV, 0.5 h, individual animals); 4.2 ng/mL and 17 ng/mL in data set [2] (IV, 1.0 h, individual animals); “BQL (BQL stands for below the quantifiable limit of 2.0 ng/mL)” in data set [2] (IV, 2.0 h, individual animals); “BQL (BQL stands for below the quantifiable limit of 2.0 ng/mL)” in data set [2] (IV, 8.0 h, individual animals); “BQL (BQL stands for below the quantifiable limit of 2.0 ng/mL)” in data set [2] (IV, 12 h, individual animals). Further, the “CSF Concentration” value in data set [2] (IV, 24 h, individual animals) is “BQL (BQL stands for below the quantifiable limit of 2.0 ng/mL)”; in data set [2] (PO, 0.00 h, individual animals) it was “BQL (BQL stands for below the quantifiable limit of 2.0 ng/mL)”; in data set [2] (PO, 0.5 h, individual animals) it was 4.3 ng/mL and BQL (BQL stands for below the quantifiable limit of 2.0 ng/mL); in data set [2] (PO, 1.0 h, individual animals), 5.3 ng/mL and 32 ng/mL and 6.7 ng/mL; in data set [2] (PO, 2.0 h, individual animals), 2.8 ng/mL and 3.1 ng/mL; in data set [2] (PO, 4.0 h, individual animals), 139 ng/mL and 56 ng/mL. The “CSF Concentration” value in data set [2] (PO, 8.0 h, individual animals) was “BQL (BQL stands for below the quantifiable limit of 2.0 ng/mL) and 1.6 ng/mL and 20 ng/mL”; in data set [2] (PO, 12 h, individual animals) it was 1.5 ng/mL and 11 ng/mL; in data set [2] (PO, 24 h, individual animals), “BQL (BQL stands for below the quantifiable limit of 2.0 ng/mL)”. Also, the concentration at 1 h was found to be 11 ng/mL in data set [2] (rat, CSF, iv, 1 mg/kg, 1.0 h, mean) and 15 ng/mL in data set [2] (rat, CSF, po, 10 mg/kg, 1.0 h, mean). The concentration at 0.5 h turned out to be 33 ng/mL in data set [2] (rat, CSF, iv, 1 mg/kg, IV, 0.5 h, mean, read-out: CSF Concentration, Mean); 2.7 ng/mL in data set [2] (rat, CSF, po, 10 mg/kg, PO, 0.5 h, individual animals, read-out: CSF Concentration); 3.5 ng/mL in data set [2] (rat, CSF, po, 10 mg/kg, PO, 0.5 h, mean, read-out: CSF Concentration, Mean). The concentration at 2 h in data set [2] (rat, CSF, iv, 1 mg/kg, IV, 2.0 h, individual animals, read-out: CSF Concentration) stood at 4.9 ng/mL; in data set [2] (rat, CSF, iv, 1 mg/kg, IV, 2.0 h, mean, read-out: CSF Concentration, Mean), 4.9 ng/mL; in data set [2] (rat, CSF, po, 10 mg/kg, PO, 2.0 h, individual animals, read-out: CSF Concentration), 3.6 ng/mL; in data set [2] (rat, CSF, po, 10 mg/kg, PO, 2.0 h, mean, read-out: CSF Concentration, Mean), 3.2 ng/mL. For the same molecule, the concentration at 4 h was 15 ng/mL in data set [2] (rat, CSF, iv, 1 mg/kg, IV, 4.0 h, individual animals, read-out: CSF Concentration); 15 ng/mL in data set [2] (rat, CSF, iv, 1 mg/kg, IV, 4.0 h, mean, read-out: CSF Concentration, Mean); 97.4 ng/mL in data set [2] (rat, CSF, po, 10 mg/kg, PO, 4.0 h, mean, read-out: CSF Concentration, Mean). In addition, the concentration at 8 h was determined as 1.4 ng/mL in data set [2] (rat, CSF, iv, 1 mg/kg, IV, 8.0 h, individual animals, read-out: CSF Concentration); 1.4 ng/mL in data set [2] (rat, CSF, iv, 1 mg/kg, IV, 8.0 h, mean, read-out: CSF Concentration, Mean); 11 ng/mL in data set [2] (rat, CSF, po, 10 mg/kg, PO, 8.0 h, mean, read-out: CSF Concentration, Mean). Besides, the concentration at 12 h in data set [2] (rat, CSF, po, 10 mg/kg, 12 h, mean) came out at 6.5 ng/mL. Further, the concentration at 24 h was found to be 2 ng/mL in data set [2] (rat, CSF, po, 10 mg/kg, PO, 24 h, individual animals, read-out: CSF Concentration) and 2 ng/mL in data set [2] (rat, CSF, po, 10 mg/kg, PO, 24 h, mean, read-out: CSF Concentration, Mean). In addition, the AUCINF/Dose is listed as 13800 in data set [3] (IV) and 6420 in data set [3] (PO). In addition, the “CL or CL/F” value in data set [3] (IV) turned out to be 1.2 mL/min/kg. In addition, the HL in data set [3] (IV) was determined as 5 h; in data set [3] (PO) it was 7 h. Moreover, the AUC(0-inf) in data set [3] (rat, in vivo, 1 mg/kg, IV) came out at 13800 ng·h/mL; in data set [3] (rat, in vivo, 10 mg/kg, PO) it was 64200 ng·h/mL. For the same molecule, the area under the curve AUC(0-t) turned out to be 13400 ng·h/mL in data set [3] (rat, in vivo, 1 mg/kg, IV) and 56200 ng·h/mL in data set [3] (rat, in vivo, 10 mg/kg, PO). The Cmax in data set [3] (rat, in vivo, 1 mg/kg, IV) came to 4310 ng/mL; in data set [3] (rat, in vivo, 10 mg/kg, PO), 4590 ng/mL. The time to peak (Tmax) in data set [3] (rat, in vivo, 10 mg/kg, PO) stood at 4 h. This molecule showed a bioavailability in data set [3] (rat, in vivo, 10 mg/kg, PO) of 45%. Further, the CL/F in data set [3] (rat, in vivo, 10 mg/kg, PO, read-out: CL or CL/F) was 2.6 mL/min/kg. For the same molecule, the “Mean Height” value was 12,600 in data set [1] (human, 0 h, 1 μM); 13,300 in data set [1] (human, 0.5 h, 1 μM); 13,000 in data set [1] (human, 1 h, 1 μM); 13,000 in data set [1] (human, 2 h, 1 μM); 13,100 in data set [1] (human, 4 h, 1 μM). For the same molecule, the “% Remaining” value is 100% in data set [1] (human, 0 h, 1 μM); 106% in data set [1] (human, 0.5 h, 1 μM); 103% in data set [1] (human, 1 h, 1 μM); 103% in data set [1] (human, 2 h, 1 μM); 104% in data set [1] (human, 4 h, 1 μM).

`COc1cc(NS(=O)(=O)c2cccc(C(=O)O)c2)cc(OC)c1` [Compound A3, 3-(N-(3,5-dimethoxyphenyl)sulfamoyl)benzoic acid]: the “Mean Height” value in data set [1] (human, 0 h, 1 μM) is given as 4,210; in data set [1] (human, 0.5 h, 1 μM), 4,100; in data set [1] (human, 1 h, 1 μM) it was 3,660; in data set [1] (human, 2 h, 1 μM), 3,440; in data set [1] (human, 4 h, 1 μM), 3,850. For the same molecule, the “% Remaining” value in data set [1] (human, 0 h, 1 μM) came out at 100%; in data set [1] (human, 0.5 h, 1 μM) it was 97%; in data set [1] (human, 1 h, 1 μM) it was 87%; in data set [1] (human, 2 h, 1 μM), 82%; in data set [1] (human, 4 h, 1 μM), 91%.

With `CC(C)[C@H](N)C(=O)OCCOCn1cnc2c(=O)[nH]c(N)nc21` [Valacyclovir, reference compound], the “Mean Height” value is reported as 21,400 in data set [1] (setting [4]); 20,700 in data set [1] (setting [5]); 20,500 in data set [1] (fresh human plasma, 1.00 μM, room temperature, 1 h); 17,700 in data set [1] (setting [6]); 19,800 in data set [1] (human, 2 h, 1 μM). Besides, the “Peak Height” value in data set [1] (setting [4]) was 21,201 and 21,603; in data set [1] (setting [5]), 21,055 and 20,329; in data set [1] (fresh human plasma, 1.00 μM, room temperature, 2 h) it was 19,941 and 19,624; in data set [1] (setting [6]), 17,697 and 17,785. Further, the “% Remaining” value is reported as 100% in data set [1] (human, 0 h, 1 μM); 96.7% in data set [1] (human, 0.5 h, 1 μM); 95.8% in data set [1] (human, 1 h, 1 μM); 92.5% in data set [1] (human, 2 h, 1 μM); 82.7% in data set [1] (human, 4 h, 1 μM).

The record behind these values is patent US20250177334A1, “Pharmaceutical Compositions Comprising Phenylsulfonamides, and Their Therapeutic Applications” (Cura Therapeutics, LLC, priority 2018, published 2025).
